Experimental findings from paper PMC9856672, “SGC-CAMKK2-1: A Chemical Probe for CAMKK2” (Cells, 2023) are described below.

One experiment concerns the target T1, CDK3 (Homo sapiens, UniProt Q00526).
T1 construct: purchased Eurofins DiscoverX KINOMEscan
Put plainly: KINOMEscan 1 μM, CDK3. It counts as binding. The settings on record: 1000 nM; Entrez CDK3; read-out: Percent Control. The text has this: (§1) Supplement cells-12-00287-s001.zip/File S2. KinomeScan data for the CAMKK2 probe and negative control.xlsx, sheet "SGC-CAMKK2-1" | column: Percent Control

The next experiment concerns the target T2, ERBB3 (Homo sapiens, UniProt P21860).
T2 construct: purchased Eurofins DiscoverX KINOMEscan
Nature of the experiment: KINOMEscan 1 μM, ERBB3. It counts as binding. The note with it: 1000 nM; Entrez ERBB3; read-out: Percent Control.
Text: as §1

The target in the next experiment is T3, PKNB(M.tuberculosis) (Mycobacterium tuberculosis, UniProt P9WI81).
T3 construct: purchased Eurofins DiscoverX KINOMEscan
Nature of the experiment: KINOMEscan 1 μM, PKNB(M.tuberculosis). It counts as binding. The settings on record: 1000 nM; Entrez pknB; read-out: Percent Control.
Text: as §1

The target in a further experiment is T4, TAOK2 (Homo sapiens, UniProt Q9UL54).
T4 construct: purchased Eurofins DiscoverX KINOMEscan
Put plainly: KINOMEscan 1 μM, TAOK2. The note with it: 1000 nM; Entrez TAOK2; read-out: Percent Control. It counts as binding.
Text: as §1

The target of experiment [1] is T5, ABL1(F317I)-nonphosphorylated (Homo sapiens, UniProt P00519, F317I).
T5 construct: purchased Eurofins DiscoverX KINOMEscan
T5 sequence (P00519 whole entry F317I): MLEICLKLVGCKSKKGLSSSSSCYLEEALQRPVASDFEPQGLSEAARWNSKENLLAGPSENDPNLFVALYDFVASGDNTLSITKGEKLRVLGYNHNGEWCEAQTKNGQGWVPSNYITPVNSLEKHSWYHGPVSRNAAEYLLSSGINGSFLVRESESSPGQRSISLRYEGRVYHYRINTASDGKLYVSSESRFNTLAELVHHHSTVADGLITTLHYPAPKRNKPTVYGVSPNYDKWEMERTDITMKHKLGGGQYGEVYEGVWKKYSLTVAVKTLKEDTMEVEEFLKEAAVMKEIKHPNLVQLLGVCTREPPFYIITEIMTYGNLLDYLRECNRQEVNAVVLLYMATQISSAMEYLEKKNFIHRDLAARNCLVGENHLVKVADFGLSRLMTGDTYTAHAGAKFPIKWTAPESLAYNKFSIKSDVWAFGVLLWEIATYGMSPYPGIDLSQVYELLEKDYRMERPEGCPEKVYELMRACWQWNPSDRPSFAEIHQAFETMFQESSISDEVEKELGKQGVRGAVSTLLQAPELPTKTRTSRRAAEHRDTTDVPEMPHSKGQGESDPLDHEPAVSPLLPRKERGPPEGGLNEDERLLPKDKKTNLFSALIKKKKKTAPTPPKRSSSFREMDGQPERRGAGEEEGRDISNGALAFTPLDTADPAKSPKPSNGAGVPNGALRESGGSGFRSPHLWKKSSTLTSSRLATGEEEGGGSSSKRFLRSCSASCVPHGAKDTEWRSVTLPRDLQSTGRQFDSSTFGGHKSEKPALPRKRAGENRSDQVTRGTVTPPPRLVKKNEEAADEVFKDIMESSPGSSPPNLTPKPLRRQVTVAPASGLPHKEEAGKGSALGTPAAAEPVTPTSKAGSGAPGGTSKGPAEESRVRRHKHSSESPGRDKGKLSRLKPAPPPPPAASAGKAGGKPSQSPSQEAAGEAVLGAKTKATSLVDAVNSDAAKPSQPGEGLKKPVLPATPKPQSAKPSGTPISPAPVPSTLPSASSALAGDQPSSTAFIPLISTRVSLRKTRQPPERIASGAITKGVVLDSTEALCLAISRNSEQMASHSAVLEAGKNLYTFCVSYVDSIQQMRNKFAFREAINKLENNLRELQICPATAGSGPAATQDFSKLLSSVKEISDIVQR
Nature of the experiment: KINOMEscan 1 μM, ABL1(F317I)-nonphosphorylated. It counts as binding. The note with it: 1000 nM; Entrez ABL1; read-out: Percent Control.
Text: as §1

The target of a further experiment is T6, ANKK1 (Homo sapiens, UniProt Q8NFD2).
T6 construct: purchased Eurofins DiscoverX KINOMEscan
Nature of the experiment: KINOMEscan 1 μM, ANKK1. The experiment is classed as binding. The settings on record: 1000 nM; Entrez ANKK1; read-out: Percent Control.
Text: as §1

For another experiment, the target named is T7, CDK2 (Homo sapiens, UniProt P24941).
T7 construct: purchased Eurofins DiscoverX KINOMEscan
Put plainly: KINOMEscan 1 μM, CDK2. The note with it: 1000 nM; Entrez CDK2; read-out: Percent Control. It counts as binding.
Text: as §1

A further experiment concerns FLT3(ITD). Put plainly: KINOMEscan 1 μM, FLT3(ITD). The settings on record: 1000 nM; Entrez FLT3. The experiment is classed as binding, human.
Text: as §1

For another experiment, the target named is T8, HCK (Homo sapiens, UniProt P08631).
T8 construct: purchased Eurofins DiscoverX KINOMEscan
Put plainly: KINOMEscan 1 μM, HCK. The experiment is classed as binding. The note with it: 1000 nM; Entrez HCK; read-out: Percent Control.
Text: as §1

The target of the next experiment is T9, MEK2 (Homo sapiens, UniProt P36507).
T9 construct: purchased Eurofins DiscoverX KINOMEscan
Put plainly: KINOMEscan 1 μM, MEK2. The note with it: 1000 nM; Entrez MAP2K2; read-out: Percent Control. It counts as binding.
Text: as §1

In another experiment the target is T10, MET(M1250T) (Homo sapiens, UniProt P08581, M1250T).
T10 construct: purchased Eurofins DiscoverX KINOMEscan
T10 sequence (P08581 25-1390 M1250T): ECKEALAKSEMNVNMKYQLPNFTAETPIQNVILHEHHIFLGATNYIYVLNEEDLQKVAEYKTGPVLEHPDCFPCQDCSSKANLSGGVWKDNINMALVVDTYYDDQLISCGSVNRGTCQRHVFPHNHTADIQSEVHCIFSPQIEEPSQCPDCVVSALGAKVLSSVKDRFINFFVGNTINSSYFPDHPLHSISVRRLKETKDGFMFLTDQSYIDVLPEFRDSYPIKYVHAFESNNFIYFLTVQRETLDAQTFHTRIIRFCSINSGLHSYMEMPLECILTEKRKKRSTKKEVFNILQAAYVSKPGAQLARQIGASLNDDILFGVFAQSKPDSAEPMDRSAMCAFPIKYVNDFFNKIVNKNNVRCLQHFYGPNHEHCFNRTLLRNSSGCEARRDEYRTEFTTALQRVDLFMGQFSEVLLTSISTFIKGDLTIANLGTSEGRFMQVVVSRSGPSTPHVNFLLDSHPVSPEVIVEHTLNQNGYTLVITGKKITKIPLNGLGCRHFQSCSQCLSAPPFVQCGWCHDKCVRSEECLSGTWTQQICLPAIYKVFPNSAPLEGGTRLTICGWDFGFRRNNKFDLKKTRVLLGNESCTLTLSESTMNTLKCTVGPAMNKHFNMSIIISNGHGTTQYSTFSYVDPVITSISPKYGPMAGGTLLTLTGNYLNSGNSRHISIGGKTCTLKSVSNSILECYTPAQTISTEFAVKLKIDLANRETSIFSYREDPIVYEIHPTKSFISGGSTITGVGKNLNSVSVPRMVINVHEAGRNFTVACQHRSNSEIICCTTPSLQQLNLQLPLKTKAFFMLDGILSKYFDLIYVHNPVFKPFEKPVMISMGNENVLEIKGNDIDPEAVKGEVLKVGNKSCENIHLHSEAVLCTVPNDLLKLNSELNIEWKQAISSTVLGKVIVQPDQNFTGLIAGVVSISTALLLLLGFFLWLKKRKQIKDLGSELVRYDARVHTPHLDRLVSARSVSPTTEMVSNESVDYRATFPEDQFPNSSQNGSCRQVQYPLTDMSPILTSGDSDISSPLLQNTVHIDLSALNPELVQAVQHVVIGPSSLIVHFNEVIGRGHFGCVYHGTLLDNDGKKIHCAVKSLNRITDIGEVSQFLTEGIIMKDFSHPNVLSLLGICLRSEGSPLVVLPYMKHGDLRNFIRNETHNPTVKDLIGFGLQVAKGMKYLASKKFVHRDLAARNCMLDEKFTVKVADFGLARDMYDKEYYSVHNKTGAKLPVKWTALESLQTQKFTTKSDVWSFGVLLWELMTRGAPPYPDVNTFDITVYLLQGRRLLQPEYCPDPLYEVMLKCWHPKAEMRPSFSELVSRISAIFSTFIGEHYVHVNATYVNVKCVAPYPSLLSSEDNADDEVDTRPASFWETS
Nature of the experiment: KINOMEscan 1 μM, MET(M1250T). The note with it: 1000 nM; Entrez MET; read-out: Percent Control. The experiment is classed as binding.
Text: as §1

The next experiment addresses T11, PRKCD (Homo sapiens, UniProt Q05655).
T11 construct: purchased Eurofins DiscoverX KINOMEscan
Nature of the experiment: DiscoverX KINOMEscan binding assay at 1 μM, PRKCD. The settings on record: Compound Concentration 1000 nM, read-out: Percent Control.
Text: as §1

In another experiment the target is T12, SRPK2 (Homo sapiens, UniProt P78362).
T12 construct: purchased Eurofins DiscoverX KINOMEscan
Nature of the experiment: DiscoverX KINOMEscan binding assay at 1 μM, SRPK2. The settings on record: Compound Concentration 1000 nM, read-out: Percent Control.
Text: as §1

A further experiment deals with T13, TXK (Homo sapiens, UniProt P42681).
T13 construct: purchased Eurofins DiscoverX KINOMEscan
Nature of the experiment: KINOMEscan at 1 μM, TXK. It counts as binding. The note with it: 1000 nM, read-out: Percent Control. An excerpt: (§2) Supplement cells-12-00287-s001.zip/File S2. KinomeScan data for the CAMKK2 probe and negative control.xlsx, sheet "SGC-CAMKK2-1N" | column: Percent Control

In a further experiment the target is T14, FGR (Homo sapiens, UniProt P09769).
T14 construct: purchased Eurofins DiscoverX KINOMEscan
Put plainly: KINOMEscan at 1 μM, FGR. The note with it: 1000 nM, read-out: Percent Control. It counts as binding.
Text: as §2

In a further experiment the target is T15, ASK2 (Homo sapiens, UniProt O95382).
T15 construct: purchased Eurofins DiscoverX KINOMEscan
Put plainly: KINOMEscan at 1 μM, ASK2. The settings on record: 1000 nM, read-out: Percent Control. It counts as binding.
Text: as §2

Another experiment deals with T16, CAMK1D (Homo sapiens, UniProt Q8IU85).
T16 construct: purchased Eurofins DiscoverX KINOMEscan
T16 sequence (Q8IU85 whole entry): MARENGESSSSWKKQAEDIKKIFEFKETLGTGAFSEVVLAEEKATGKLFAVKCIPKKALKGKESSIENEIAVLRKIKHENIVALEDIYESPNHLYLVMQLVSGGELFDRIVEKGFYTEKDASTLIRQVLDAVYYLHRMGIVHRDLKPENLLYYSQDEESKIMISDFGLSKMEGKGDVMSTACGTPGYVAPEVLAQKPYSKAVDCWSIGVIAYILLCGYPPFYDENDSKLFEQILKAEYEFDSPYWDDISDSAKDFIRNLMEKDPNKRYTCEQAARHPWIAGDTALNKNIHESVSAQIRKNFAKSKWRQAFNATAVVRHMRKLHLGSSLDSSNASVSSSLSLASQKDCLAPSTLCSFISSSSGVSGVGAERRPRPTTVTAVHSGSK
Nature of the experiment: KINOMEscan at 1 μM, CAMK1D. The experiment is classed as binding. The settings on record: 1000 nM, read-out: Percent Control.
Text: as §2

In a further experiment the target is T17, CTK (Homo sapiens, UniProt P42679).
T17 construct: purchased Eurofins DiscoverX KINOMEscan
T17 sequence (P42679 whole entry): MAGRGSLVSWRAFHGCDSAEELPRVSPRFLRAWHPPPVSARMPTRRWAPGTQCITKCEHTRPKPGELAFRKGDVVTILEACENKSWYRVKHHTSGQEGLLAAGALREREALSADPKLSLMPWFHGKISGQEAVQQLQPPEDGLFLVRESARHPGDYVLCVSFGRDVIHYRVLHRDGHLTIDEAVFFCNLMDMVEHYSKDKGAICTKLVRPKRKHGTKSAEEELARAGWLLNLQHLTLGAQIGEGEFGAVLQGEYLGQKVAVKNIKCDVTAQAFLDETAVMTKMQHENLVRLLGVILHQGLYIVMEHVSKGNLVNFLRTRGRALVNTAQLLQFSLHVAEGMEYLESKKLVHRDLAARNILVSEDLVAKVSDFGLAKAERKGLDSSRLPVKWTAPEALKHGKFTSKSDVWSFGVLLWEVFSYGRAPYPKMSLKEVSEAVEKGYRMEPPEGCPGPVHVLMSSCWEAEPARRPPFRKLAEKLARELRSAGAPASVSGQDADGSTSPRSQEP
Nature of the experiment: KINOMEscan at 1 μM, CTK. The experiment is classed as binding. The note with it: 1000 nM, read-out: Percent Control.
Text: as §2

In a further experiment the target is T18, ABL1-nonphosphorylated (Homo sapiens, UniProt P00519).
T18 construct: purchased Eurofins DiscoverX KINOMEscan
T18 sequence (P00519 whole entry): as the sequence (P00519 whole entry F317I) above, with I317F counted along it
Nature of the experiment: KINOMEscan at 1 μM, ABL1-nonphosphorylated. The experiment is classed as binding. The settings on record: 1000 nM, read-out: Percent Control.
Text: as §2

The next experiment has as its target T19, NEK1 (Homo sapiens, UniProt Q96PY6).
T19 construct: purchased Eurofins DiscoverX KINOMEscan
Put plainly: KINOMEscan at 1 μM, NEK1. It counts as binding. The settings on record: 1000 nM, read-out: Percent Control.
Text: as §2

In another experiment the target is T20, FLT4 (Homo sapiens, UniProt P35916).
T20 construct: purchased Eurofins DiscoverX KINOMEscan
Put plainly: KINOMEscan at 1 μM, FLT4. The experiment is classed as binding. The settings on record: 1000 nM, read-out: Percent Control.
Text: as §2

Experiment [2] deals with T21, RPS6KA5(Kin.Dom.2-C-terminal) (Homo sapiens, UniProt O75582).
T21 construct: RPS6KA5(Kin.Dom.2-C-terminal); purchased Eurofins DiscoverX KINOMEscan
Nature of the experiment: KINOMEscan at 1 μM, RPS6KA5(Kin.Dom.2-C-terminal). It counts as binding. The note with it: 1000 nM, read-out: Percent Control.
Text: as §2

The target in the next experiment is T22, PCTK1 (Homo sapiens, UniProt Q00536).
T22 construct: purchased Eurofins DiscoverX KINOMEscan
Put plainly: KINOMEscan at 1 μM, PCTK1. The settings on record: 1000 nM, read-out: Percent Control. The experiment is classed as binding.
Text: as §2

Experiment [3] deals with T23, TYK2(JH2domain-pseudokinase) (Homo sapiens, UniProt P29597).
T23 construct: TYK2(JH2domain-pseudokinase); purchased Eurofins DiscoverX KINOMEscan
Put plainly: KINOMEscan at 1 μM, TYK2(JH2domain-pseudokinase). It counts as binding. The settings on record: 1000 nM, read-out: Percent Control.
Text: as §2

Another experiment concerns the target T24, PIK3CA(I800L) (Homo sapiens, UniProt P42336, I800L).
T24 construct: purchased Eurofins DiscoverX KINOMEscan
Put plainly: KINOMEscan at 1 μM, PIK3CA(I800L). The experiment is classed as binding. The settings on record: 1000 nM, read-out: Percent Control.
Text: as §2

In another experiment the target is T25, LIMK1 (Homo sapiens, UniProt P53667).
T25 construct: purchased Eurofins DiscoverX KINOMEscan
Nature of the experiment: KINOMEscan at 1 μM, LIMK1. The experiment is classed as binding. The note with it: 1000 nM, read-out: Percent Control.
Text: as §2

A further experiment addresses T26, MAP4K3 (Homo sapiens, UniProt Q8IVH8).
T26 construct: purchased Eurofins DiscoverX KINOMEscan
Put plainly: KINOMEscan at 1 μM, MAP4K3. The experiment is classed as binding. The settings on record: 1000 nM, read-out: Percent Control.
Text: as §2

A further experiment addresses T27, PYK2 (Homo sapiens, UniProt Q14289).
T27 construct: purchased Eurofins DiscoverX KINOMEscan
Nature of the experiment: KINOMEscan at 1 μM, PYK2. The experiment is classed as binding. The note with it: 1000 nM, read-out: Percent Control.
Text: as §2

The target of another experiment is T28, MST1R (Homo sapiens, UniProt Q04912).
T28 construct: purchased Eurofins DiscoverX KINOMEscan
Nature of the experiment: KINOMEscan at 1 μM, MST1R. It counts as binding. The settings on record: 1000 nM, read-out: Percent Control.
Text: as §2

In the next experiment the target is T29, AMPK-alpha2 (Homo sapiens, UniProt P54646).
T29 construct: purchased Eurofins DiscoverX KINOMEscan
Put plainly: KINOMEscan at 1 μM, AMPK-alpha2. The settings on record: 1000 nM, read-out: Percent Control. It counts as binding.
Text: as §2

For another experiment, the target named is T30, CAMK4 (Homo sapiens, UniProt Q16566).
T30 construct: purchased Eurofins DiscoverX KINOMEscan
Put plainly: KINOMEscan at 1 μM, CAMK4. It counts as binding. The note with it: 1000 nM, read-out: Percent Control.
Text: as §2

The target in another experiment is T31, DDR2 (Homo sapiens, UniProt Q16832).
T31 construct: purchased Eurofins DiscoverX KINOMEscan
Nature of the experiment: KINOMEscan at 1 μM, DDR2. The experiment is classed as binding. The settings on record: 1000 nM, read-out: Percent Control.
Text: as §2

The target of another experiment is T32, FRK (Homo sapiens, UniProt P42685).
T32 construct: purchased Eurofins DiscoverX KINOMEscan
T32 sequence (P42685 whole entry): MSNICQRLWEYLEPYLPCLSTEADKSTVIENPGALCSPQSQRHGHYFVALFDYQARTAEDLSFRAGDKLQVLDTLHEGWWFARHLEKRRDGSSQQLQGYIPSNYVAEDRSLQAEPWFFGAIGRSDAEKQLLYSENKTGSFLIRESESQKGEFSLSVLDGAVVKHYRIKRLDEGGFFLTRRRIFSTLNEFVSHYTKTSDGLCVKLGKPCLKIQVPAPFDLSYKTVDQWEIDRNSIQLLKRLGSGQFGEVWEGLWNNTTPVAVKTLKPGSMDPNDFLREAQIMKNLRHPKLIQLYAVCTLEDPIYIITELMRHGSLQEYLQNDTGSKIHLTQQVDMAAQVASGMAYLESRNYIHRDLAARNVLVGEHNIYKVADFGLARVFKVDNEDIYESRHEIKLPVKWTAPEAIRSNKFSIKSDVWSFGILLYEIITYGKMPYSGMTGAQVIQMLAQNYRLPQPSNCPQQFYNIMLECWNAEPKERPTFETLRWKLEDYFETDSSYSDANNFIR
Nature of the experiment: KINOMEscan binding assay at 1 μM, FRK. The settings on record: Compound Concentration 1000 nM; read-out: Percent Control.
Text: as §2

For another experiment, the target named is T33, JNK3 (Homo sapiens, UniProt P53779).
T33 construct: purchased Eurofins DiscoverX KINOMEscan
Nature of the experiment: KINOMEscan binding assay at 1 μM, JNK3. The settings on record: Compound Concentration 1000 nM; read-out: Percent Control.
Text: as §2

The next experiment addresses T34, MRCKB (Homo sapiens, UniProt Q9Y5S2).
T34 construct: purchased Eurofins DiscoverX KINOMEscan
Nature of the experiment: KINOMEscan binding assay at 1 μM, MRCKB. The note with it: Compound Concentration 1000 nM; read-out: Percent Control.
Text: as §2

T26 sequence (Q8IVH8 whole entry): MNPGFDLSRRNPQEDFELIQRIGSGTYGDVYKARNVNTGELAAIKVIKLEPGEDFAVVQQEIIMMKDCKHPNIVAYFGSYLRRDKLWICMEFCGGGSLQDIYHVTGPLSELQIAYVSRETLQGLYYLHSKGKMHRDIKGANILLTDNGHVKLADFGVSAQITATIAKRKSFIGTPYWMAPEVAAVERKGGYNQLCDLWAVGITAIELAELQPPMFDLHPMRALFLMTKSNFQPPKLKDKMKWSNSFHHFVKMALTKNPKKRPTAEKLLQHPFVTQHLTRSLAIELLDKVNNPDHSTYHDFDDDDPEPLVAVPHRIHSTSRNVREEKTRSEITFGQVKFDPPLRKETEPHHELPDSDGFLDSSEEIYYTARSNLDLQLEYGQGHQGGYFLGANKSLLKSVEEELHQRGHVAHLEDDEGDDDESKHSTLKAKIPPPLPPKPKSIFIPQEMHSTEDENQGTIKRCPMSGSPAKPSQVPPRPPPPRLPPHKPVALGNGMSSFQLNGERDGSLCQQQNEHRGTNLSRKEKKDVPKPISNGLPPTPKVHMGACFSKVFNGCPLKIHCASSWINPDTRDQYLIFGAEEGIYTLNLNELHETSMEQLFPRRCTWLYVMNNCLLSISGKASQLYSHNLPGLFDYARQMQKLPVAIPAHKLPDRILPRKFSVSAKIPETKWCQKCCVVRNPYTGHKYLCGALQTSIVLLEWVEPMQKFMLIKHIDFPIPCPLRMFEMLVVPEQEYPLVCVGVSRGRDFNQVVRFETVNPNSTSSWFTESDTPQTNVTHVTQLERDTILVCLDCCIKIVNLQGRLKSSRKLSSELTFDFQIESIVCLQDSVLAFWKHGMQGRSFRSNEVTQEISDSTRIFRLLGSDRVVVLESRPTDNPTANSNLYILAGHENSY

For `Cc1cccc(-c2cnc3occ(-c4ccc(C(=O)O)c(C5CCCC5)c4)c3c2)c1` [SGC-CAMKK2-1 (YL-36)], the remaining binding at 1 µM is 59% at CDK3; 86% at ERBB3; 90% at PKNB(M.tuberculosis); 90% at TAOK2; 100% in experiment [1]; 100% at ANKK1. For the same compound, the remaining binding at 1 µM at CDK2, at HCK, on MEK2, on MET(M1250T), at PRKCD and at SRPK2 was 100% in each case. The “Percent Control” value in the experiment with FLT3(ITD) was found to be 100%.
On to `O=C(O)c1ccc(-c2coc3ncc(-c4ccccc4)cc23)cc1Cl` [SGC-CAMKK2-1N (UNC-YL-83)], for which the remaining binding at 1 µM on TXK amounted to 53%; at FGR, 54%; at ASK2 it was 56%; on CAMK1D, 61%; on CTK, 63%; on ABL1-nonphosphorylated, 66%. The remaining binding at 1 µM turned out to be 71% on NEK1; 82% at FLT4; 82% in experiment [2]; 83% on PCTK1; 83% in [3]; 87% on PIK3CA(I800L). Besides, the remaining binding at 1 µM on LIMK1 worked out at 88%; at MAP4K3 it was 91%; at PYK2, 96%; at MST1R, 98%; at AMPK-alpha2, 100%; at CAMK4, 100%. Besides, the remaining binding at 1 µM on DDR2, at FRK, on JNK3 and on MRCKB was 100% each time.
